Measured values from patent US20170334899A1, “AMINO-SUBSTITUTED ISOTHIAZOLES” (Bayer Pharma Aktiengesellschaft, priority 2014, published 2017).

How the values were obtained:
[1] = test system: human cervical tumor cell line HeLa (ATCC CCL-2); test: SAC-Formation - Nocodazole-Induced Assay; assay type: cell-based; conditions: Homo sapiens, HeLa, 24 h, HeLa cells, nocodazole 0.1 μg/ml together with test compound, decrease of mitotic cells (phospho-histone H3 Ser10)
Summary of the method: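 HeLa cells, plated overnight, were treated 24 h at 37 °C with nocodazole (0.1 μg/ml final) plus test compound (0.005–20 μM, 0.5% DMSO) added at the same time. After fixation, anti-phospho-histone H3 Ser10 and Hoechst staining gave the mitotic cell fraction by imaging. Values came from four-parameter Hill fits.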

[2] = test system: human cervical tumor cell line HeLa (ATCC CCL-2); test: SAC-Formation - Paclitaxel-Induced Assay; assay type: cell-based; conditions: Homo sapiens, HeLa, 24 h, HeLa cells, paclitaxel 0.05 μM, test range 0.005 μM-20 μM, read-out: IC50 [mol/l] SAC-Formation - Paclitaxel-Induced Assay
Summary of the method: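 HeLa cells incubated overnight at 37° C, then given paclitaxel (0.05 μM final) plus test compound (0.005–20 μM, 0.5% DMSO) together for 24 h at 37° C. Fixed cells stained for phospho-histone H3 Ser10 (mitotic cells) and Hoechst 33342 (cell count); imaging-derived mitotic index fitted by four-parameter Hill equation.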

IC50 [1] [nM] | IC50 [2] [nM] | SMILES
16 | 64 | Cc1nsc(Nc2cnc(C(F)(F)F)cn2)c1C(=O)Nc1ccc(O[C@@H]2CCN(CCC(F)(F)F)C[C@H]2F)nc1 [Example 368, N-(6-{[(3R,4R)-3-fluoro-1-(3,3,3-trifluoropropyl)piperidin-4-yl]oxy}pyridin-3-yl)-3-methyl-5-{[5-(trifluoromethyl)pyrazin-2-yl]amino}-1,2-thiazole-4-carboxamide]
110 | 120 | Cc1nsc(Nc2cnc(C(F)(F)F)cn2)c1C(=O)Nc1ccc(OCCCN(C)CC(F)(F)F)nc1 [Example 354, 3-methyl-N-(6-{3-[methyl(2,2,2-trifluoroethyl)amino]propoxy}pyridin-3-yl)-5-{[5-(trifluoromethyl)pyrazin-2-yl]amino}-1,2-thiazole-4-carboxamide]
40 | 64 | Cc1nsc(Nc2cnc(C(F)(F)F)cn2)c1C(=O)Nc1ccc(OCC2CCN(CCC(F)(F)F)CC2)nc1 [Example 347, 3-methyl-5-{[5-(trifluoromethyl)pyrazin-2-yl]amino}-N-(6-{[1-(3,3,3-trifluoropropyl)piperidin-4-yl]methoxy}pyridin-3-yl)-1,2-thiazole-4-carboxamide]
34 | 150 | CCN1CC[C@H](Oc2ccc(NC(=O)c3c(C)nsc3Nc3cnc(C(F)(F)F)cn3)cn2)[C@@H](F)C1 [Example 365, N-(6-{[(3S,4S)-1-ethyl-3-fluoropiperidin-4-yl]oxy}pyridin-3-yl)-3-methyl-5-{[5-(trifluoromethyl)pyrazin-2-yl]amino}-1,2-thiazole-4-carboxamide]
70 | 130 | Cc1nsc(Nc2cnc(C(F)(F)F)cn2)c1C(=O)Nc1ccc(O[C@@H]2CCCN(CCC(F)(F)F)C2)nc1 [Example 387, 3-methyl-5-{[5-(trifluoromethyl)pyrazin-2-yl]amino}-N-(6-{[(3R)-1-(3,3,3-trifluoropropyl)piperidin-3-yl]oxy}pyridin-3-yl)-1,2-thiazole-4-carboxamide]
27 | 51 | CCCN1CC[C@@H](Oc2ccc(NC(=O)c3c(C)nsc3Nc3cnc(C(F)(F)F)cn3)cn2)[C@H](F)C1 [Example 371, N-(6-{[(3R,4R)-3-fluoro-1-propylpiperidin-4-yl]oxy}pyridin-3-yl)-3-methyl-5-{[5-(trifluoromethyl)pyrazin-2-yl]amino}-1,2-thiazole-4-carboxamide]
33 | 35 | Cc1nsc(Nc2cnc(C(F)(F)F)cn2)c1C(=O)Nc1ccc(F)c(OC[C@@H]2CCN(CCC(F)(F)F)C2)c1 [Example 340, N-(4-fluoro-3-{[(3R)-1-(3,3,3-trifluoropropyl)pyrrolidin-3-yl]methoxy}phenyl)-3-methyl-5-{[5-(trifluoromethyl)pyrazin-2-yl]amino}-1,2-thiazole-4-carboxamide]
290 | 280 | Cc1nsc(Nc2cnc(C(F)(F)F)cn2)c1C(=O)Nc1ccc(OCC2CCN(CCF)CC2)nc1 [Example 344, N-(6-{[1-(2-fluoroethyl)piperidin-4-yl]methoxy}pyridin-3-yl)-3-methyl-5-{[5-(trifluoromethyl)pyrazin-2-yl]amino}-1,2-thiazole-4-carboxamide]
6.3 | 57 | Cc1nsc(Nc2cnc(C(F)(F)F)cn2)c1C(=O)Nc1ccc(OCC2CCCN(CC(F)F)C2)nc1 (stereo not drawn) [Example 327, N-(6-{[1-(2,2-difluoroethyl)piperidin-3-yl]methoxy}pyridin-3-yl)-3-methyl-5-{[5-(trifluoromethyl)pyrazin-2-yl]amino}-1,2-thiazole-4-carboxamide]
47 | 140 | Cc1nsc(Nc2cnc(C(F)(F)F)cn2)c1C(=O)Nc1ccc(O[C@@H]2CCN(CCC(F)(F)F)C2)nc1 [Example 381, 3-methyl-5-{[5-(trifluoromethyl)pyrazin-2-yl]amino}-N-(6-{[(3R)-1-(3,3,3-trifluoropropyl)pyrrolidin-3-yl]oxy}pyridin-3-yl)-1,2-thiazole-4-carboxamide]
110 | 53 | Cc1nsc(Nc2cnc(C(F)(F)F)cn2)c1C(=O)Nc1ccc(OCC2CCCN(CCF)C2)nc1 (stereo not drawn) [Example 325, N-(6-{[1-(2-fluoroethyl)piperidin-3-yl]methoxy}pyridin-3-yl)-3-methyl-5-{[5-(trifluoromethyl)pyrazin-2-yl]amino}-1,2-thiazole-4-carboxamide]
81 | 50 | Cc1nsc(Nc2cnc(C(F)(F)F)cn2)c1C(=O)Nc1ccc(OCCN(C)CC(F)F)nc1 [Example 349, N-(6-{2-[(2,2-difluoroethyl)(methyl)amino]ethoxy}pyridin-3-yl)-3-methyl-5-{[5-(trifluoromethyl)pyrazin-2-yl]amino}-1,2-thiazole-4-carboxamide]
110 | 110 | Cc1nsc(Nc2cnc(C(F)(F)F)cn2)c1C(=O)Nc1ccc(O[C@H]2CCCN(CCC(F)(F)F)C2)nc1 [Example 390, 3-methyl-5-{[5-(trifluoromethyl)pyrazin-2-yl]amino}-N-(6-{[(3S)-1-(3,3,3-trifluoropropyl)piperidin-3-yl]oxy}pyridin-3-yl)-1,2-thiazole-4-carboxamide]
11000 | 20000 | Cc1nsc(Nc2ccc(C#N)cn2)c1C(=O)Nc1ccc(OC2CCNCC2)nc1 [Example 28, 5-[(5-Cyanopyridin-2-yl)amino]-3-methyl-N-[6-(piperidin-4-yloxy)pyridin-3-yl]-1,2-thiazole-4-carboxannide]
110 | 47 | Cc1nsc(Nc2cnc(C(F)(F)F)cn2)c1C(=O)Nc1ccc(O[C@H]2CCN(CC(F)(F)F)C[C@@H]2F)nc1 [Example 363, N-(6-{[(3S,4S)-3-fluoro-1-(2,2,2-trifluoroethyl)piperidin-4-yl]oxy}pyridin-3-yl)-3-methyl-5-{[5-(trifluoromethyl)pyrazin-2-yl]amino}-1,2-thiazole-4-carboxamide]
61 | 51 | Cc1nsc(Nc2cnc(C(F)(F)F)cn2)c1C(=O)Nc1ccc(F)c(OCC2CCCN(CC(F)(F)F)C2)c1 (stereo not drawn) [Example 337, N-(4-fluoro-3-{[1-(2,2,2-trifluoroethyl)piperidin-3-yl]methoxy}phenyl)-3-methyl-5-{[5-(trifluoromethyl)pyrazin-2-yl]amino}-1,2-thiazole-4-carboxamide]
120 | 330 | Cc1nsc(Nc2cnc(C(F)(F)F)cn2)c1C(=O)Nc1ccc(N2CCN(CC(F)F)CC2)cn1 [Example 372, N-{5-[4-(2,2-difluoroethyl)piperazin-1-yl]pyridin-2-yl}-3-methyl-5-{[5-(trifluoromethyl)pyrazin-2-yl]amino}-1,2-thiazole-4-carboxamide]
120 | 210 | Cc1nsc(Nc2cnc(C(F)(F)F)cn2)c1C(=O)Nc1ccc(N2CCN(CCC(F)(F)F)CC2)cn1 [Example 374, 3-methyl-5-{[5-(trifluoromethyl)pyrazin-2-yl]amino}-N-{5-[4-(3,3,3-trifluoropropyl)piperazin-1-yl]pyridin-2-yl}-1,2-thiazole-4-carboxamide]
